Laboratory results published in ChEMBL document CHEMBL5465560, “Selectivity Literature for EUbOPEN Chemogenomic Library” (2024).
pIC50: −log10 of the molar value.

Legend:
[1] = target: T1, Mitogen-activated protein kinase kinase kinase 12 (Homo sapiens) (UniProt Q12852); assay: Selectivity interaction (KinomeScan (DiscoverX)) EUB0000229b MAP3K12; conditions: at 10 µM
T1 sequence (whole entry): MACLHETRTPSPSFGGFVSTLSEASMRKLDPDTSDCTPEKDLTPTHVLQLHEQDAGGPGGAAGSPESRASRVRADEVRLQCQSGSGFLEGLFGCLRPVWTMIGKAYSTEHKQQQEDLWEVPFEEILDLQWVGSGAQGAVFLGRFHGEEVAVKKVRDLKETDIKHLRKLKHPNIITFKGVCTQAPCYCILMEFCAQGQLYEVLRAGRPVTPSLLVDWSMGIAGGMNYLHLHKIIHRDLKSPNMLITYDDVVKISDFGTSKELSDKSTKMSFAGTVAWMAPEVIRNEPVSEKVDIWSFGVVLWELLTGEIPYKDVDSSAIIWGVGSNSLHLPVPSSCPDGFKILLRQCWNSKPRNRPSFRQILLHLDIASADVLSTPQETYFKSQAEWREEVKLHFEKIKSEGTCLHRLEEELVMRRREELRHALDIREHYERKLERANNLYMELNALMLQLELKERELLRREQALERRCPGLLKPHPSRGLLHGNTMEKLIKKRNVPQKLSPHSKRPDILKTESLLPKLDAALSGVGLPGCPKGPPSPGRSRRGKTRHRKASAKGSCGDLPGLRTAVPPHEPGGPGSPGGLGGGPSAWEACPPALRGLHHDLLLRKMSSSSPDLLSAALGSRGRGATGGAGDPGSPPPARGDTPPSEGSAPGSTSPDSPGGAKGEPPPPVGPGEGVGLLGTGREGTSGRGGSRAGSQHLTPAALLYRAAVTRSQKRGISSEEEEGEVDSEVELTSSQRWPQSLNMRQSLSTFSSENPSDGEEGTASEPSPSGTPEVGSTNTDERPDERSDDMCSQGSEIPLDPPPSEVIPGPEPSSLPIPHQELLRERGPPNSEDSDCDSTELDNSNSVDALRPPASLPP

[2] = target: Muscarinic acetylcholine receptor M3 (Homo sapiens, UniProt P20309); assay: Selectivity interaction (Muscarinic M3 receptor assay, human recombinant ) EUB0000877a CHRM3
[3] = target: T2, Phosphatidylinositol 5-phosphate 4-kinase type-2 gamma (Homo sapiens) (UniProt Q8TBX8); assay: Selectivity interaction (KinomeScan (DiscoverX)) EUB0000045b PIP4K2C; conditions: at 1 µM
T2 sequence (whole entry): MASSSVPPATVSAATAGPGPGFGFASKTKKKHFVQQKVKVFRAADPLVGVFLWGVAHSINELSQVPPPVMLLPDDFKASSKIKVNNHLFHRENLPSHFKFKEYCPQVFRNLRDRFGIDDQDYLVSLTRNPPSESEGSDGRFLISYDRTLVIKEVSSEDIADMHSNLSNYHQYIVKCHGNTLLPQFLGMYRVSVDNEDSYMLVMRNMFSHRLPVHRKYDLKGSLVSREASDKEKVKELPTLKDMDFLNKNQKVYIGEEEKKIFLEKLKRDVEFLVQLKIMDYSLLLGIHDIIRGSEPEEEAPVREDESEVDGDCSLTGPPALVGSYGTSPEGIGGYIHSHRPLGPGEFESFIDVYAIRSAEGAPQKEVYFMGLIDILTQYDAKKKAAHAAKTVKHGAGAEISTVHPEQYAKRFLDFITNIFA

[4] = target: Serine/threonine-protein kinase pim-3 (Homo sapiens) (UniProt Q86V86); conditions: at 10 µM
SRSF protein kinase 1 = SRSF protein kinase 1 (Homo sapiens, UniProt Q96SB4); assay: Selectivity interaction (KinomeScan (DiscoverX)) EUB0000655a SRPK1; conditions: at 10 µM
[5] = system: Mast/stem cell growth factor receptor Kit (Homo sapiens), P10721 [D816H]; assay: (§1) Selectivity interaction (KinomeScan (DiscoverX)) EUB0000695a KIT; conditions: at 100 nM
[6] = system: Mast/stem cell growth factor receptor Kit (Homo sapiens), P10721 [L576P]; assay: as §1; conditions: at 100 nM
[7] = system: Mast/stem cell growth factor receptor Kit (Homo sapiens), P10721 [V559D]; assay: as §1; conditions: at 100 nM
[8] = system: Mast/stem cell growth factor receptor Kit (Homo sapiens), P10721 [D816V]; assay: as §1; conditions: at 100 nM
[9] = system: Mast/stem cell growth factor receptor Kit (Homo sapiens), P10721 [V559D,V654A]; assay: as §1; conditions: at 100 nM
[10] = system: Mast/stem cell growth factor receptor Kit (Homo sapiens), P10721 [A829P]; assay: as §1; conditions: at 100 nM
[11] = target: Mast/stem cell growth factor receptor Kit (Homo sapiens, UniProt P10721); assay: as §1; conditions: at 100 nM
[12] = system: Mast/stem cell growth factor receptor Kit (Homo sapiens), P10721 [V559D,T670I]; assay: as §1; conditions: at 100 nM
[13] = target: T3, Serine/threonine-protein kinase ULK2 (Homo sapiens) (UniProt Q8IYT8); assay: Selectivity interaction (LanthaScreen Eu Kinase Binding Assay) EUB0001632a ULK2; conditions: at 10 µM
T3 sequence (whole entry): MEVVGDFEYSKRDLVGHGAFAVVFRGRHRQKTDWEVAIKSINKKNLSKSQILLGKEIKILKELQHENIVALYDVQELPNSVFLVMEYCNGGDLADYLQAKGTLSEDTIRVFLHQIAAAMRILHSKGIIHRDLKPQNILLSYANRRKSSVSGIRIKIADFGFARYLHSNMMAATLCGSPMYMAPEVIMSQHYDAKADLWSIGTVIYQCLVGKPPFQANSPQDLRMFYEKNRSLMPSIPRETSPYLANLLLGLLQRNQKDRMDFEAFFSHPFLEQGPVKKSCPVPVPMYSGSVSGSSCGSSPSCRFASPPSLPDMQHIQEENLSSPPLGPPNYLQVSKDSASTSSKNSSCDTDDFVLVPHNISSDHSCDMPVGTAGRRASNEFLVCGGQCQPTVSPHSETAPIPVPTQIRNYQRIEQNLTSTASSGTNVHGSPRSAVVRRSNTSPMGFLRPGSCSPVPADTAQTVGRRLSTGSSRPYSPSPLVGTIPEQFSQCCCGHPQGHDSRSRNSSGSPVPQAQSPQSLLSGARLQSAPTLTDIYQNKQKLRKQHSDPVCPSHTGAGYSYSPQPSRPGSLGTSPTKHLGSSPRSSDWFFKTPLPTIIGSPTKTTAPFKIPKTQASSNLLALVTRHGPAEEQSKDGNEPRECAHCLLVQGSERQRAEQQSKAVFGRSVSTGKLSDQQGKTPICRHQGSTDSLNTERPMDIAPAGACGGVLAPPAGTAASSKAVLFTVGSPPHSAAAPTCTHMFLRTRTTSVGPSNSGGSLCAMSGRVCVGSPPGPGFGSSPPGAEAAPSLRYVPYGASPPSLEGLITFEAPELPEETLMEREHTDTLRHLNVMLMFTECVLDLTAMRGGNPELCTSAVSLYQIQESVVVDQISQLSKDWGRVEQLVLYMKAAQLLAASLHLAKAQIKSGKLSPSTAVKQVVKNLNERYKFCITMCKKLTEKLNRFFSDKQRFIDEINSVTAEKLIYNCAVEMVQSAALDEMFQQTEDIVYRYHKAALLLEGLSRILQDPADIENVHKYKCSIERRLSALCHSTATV

Muscarinic acetylcholine receptor M3, sequence (P20309 whole entry): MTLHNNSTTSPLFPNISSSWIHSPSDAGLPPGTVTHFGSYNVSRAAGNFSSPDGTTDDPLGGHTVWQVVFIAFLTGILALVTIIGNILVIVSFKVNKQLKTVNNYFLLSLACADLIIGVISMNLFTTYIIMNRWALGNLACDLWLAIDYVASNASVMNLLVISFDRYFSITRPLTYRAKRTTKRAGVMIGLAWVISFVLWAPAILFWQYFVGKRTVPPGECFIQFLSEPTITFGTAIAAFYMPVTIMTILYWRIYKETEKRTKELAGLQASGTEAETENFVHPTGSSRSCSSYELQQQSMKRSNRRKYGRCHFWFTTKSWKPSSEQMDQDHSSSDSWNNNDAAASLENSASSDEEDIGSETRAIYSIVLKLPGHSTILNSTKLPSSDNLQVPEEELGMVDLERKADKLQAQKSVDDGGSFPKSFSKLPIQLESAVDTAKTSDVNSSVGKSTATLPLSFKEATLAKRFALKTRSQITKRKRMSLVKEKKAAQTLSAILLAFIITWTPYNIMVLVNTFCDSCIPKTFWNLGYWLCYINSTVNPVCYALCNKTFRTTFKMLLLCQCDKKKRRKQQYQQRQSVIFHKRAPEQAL
Mast/stem cell growth factor receptor Kit, sequence (P10721 whole entry): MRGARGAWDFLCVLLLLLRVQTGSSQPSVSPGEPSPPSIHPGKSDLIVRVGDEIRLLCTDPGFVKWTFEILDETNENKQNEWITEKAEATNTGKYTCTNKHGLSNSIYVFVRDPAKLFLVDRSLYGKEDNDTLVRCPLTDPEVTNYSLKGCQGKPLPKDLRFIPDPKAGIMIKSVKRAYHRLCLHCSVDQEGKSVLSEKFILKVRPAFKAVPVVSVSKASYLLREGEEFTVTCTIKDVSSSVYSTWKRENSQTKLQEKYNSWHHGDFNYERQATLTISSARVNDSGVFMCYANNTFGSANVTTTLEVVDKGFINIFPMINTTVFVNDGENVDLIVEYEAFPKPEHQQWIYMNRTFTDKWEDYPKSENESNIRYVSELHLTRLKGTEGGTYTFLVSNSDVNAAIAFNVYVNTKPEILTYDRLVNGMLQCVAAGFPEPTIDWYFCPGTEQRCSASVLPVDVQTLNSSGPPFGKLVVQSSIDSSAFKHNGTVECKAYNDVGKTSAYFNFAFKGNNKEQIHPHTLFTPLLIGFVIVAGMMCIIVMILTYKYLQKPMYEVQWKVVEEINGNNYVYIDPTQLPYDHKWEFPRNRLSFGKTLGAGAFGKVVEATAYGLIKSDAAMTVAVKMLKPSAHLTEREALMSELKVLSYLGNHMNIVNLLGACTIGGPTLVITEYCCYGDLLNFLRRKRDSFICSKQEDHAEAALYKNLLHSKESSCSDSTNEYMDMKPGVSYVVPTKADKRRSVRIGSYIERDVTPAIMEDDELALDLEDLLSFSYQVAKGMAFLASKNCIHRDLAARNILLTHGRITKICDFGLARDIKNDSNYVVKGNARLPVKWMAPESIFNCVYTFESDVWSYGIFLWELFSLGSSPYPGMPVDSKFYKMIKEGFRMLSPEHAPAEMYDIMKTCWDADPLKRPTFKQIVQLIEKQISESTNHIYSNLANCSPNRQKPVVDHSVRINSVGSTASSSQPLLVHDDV
Mast/stem cell growth factor receptor Kit (Homo sapiens), P10721 [V559D,T670I], sequence (P10721 whole entry V559D/T670I): as the sequence (P10721 whole entry) above, with V559D, T670I counted along it
Mast/stem cell growth factor receptor Kit (Homo sapiens), P10721 [V559D], sequence (P10721 whole entry V559D): as the sequence (P10721 whole entry) above, with V559D counted along it
Mast/stem cell growth factor receptor Kit (Homo sapiens), P10721 [D816V], sequence (P10721 whole entry D816V): as the sequence (P10721 whole entry) above, with D816V counted along it
Mast/stem cell growth factor receptor Kit (Homo sapiens), P10721 [V559D,V654A], sequence (P10721 whole entry V559D/V654A): as the sequence (P10721 whole entry) above, with V559D, V654A counted along it
Mast/stem cell growth factor receptor Kit (Homo sapiens), P10721 [A829P], sequence (P10721 whole entry A829P): as the sequence (P10721 whole entry) above, with A829P counted along it
SRSF protein kinase 1, sequence (Q96SB4 whole entry): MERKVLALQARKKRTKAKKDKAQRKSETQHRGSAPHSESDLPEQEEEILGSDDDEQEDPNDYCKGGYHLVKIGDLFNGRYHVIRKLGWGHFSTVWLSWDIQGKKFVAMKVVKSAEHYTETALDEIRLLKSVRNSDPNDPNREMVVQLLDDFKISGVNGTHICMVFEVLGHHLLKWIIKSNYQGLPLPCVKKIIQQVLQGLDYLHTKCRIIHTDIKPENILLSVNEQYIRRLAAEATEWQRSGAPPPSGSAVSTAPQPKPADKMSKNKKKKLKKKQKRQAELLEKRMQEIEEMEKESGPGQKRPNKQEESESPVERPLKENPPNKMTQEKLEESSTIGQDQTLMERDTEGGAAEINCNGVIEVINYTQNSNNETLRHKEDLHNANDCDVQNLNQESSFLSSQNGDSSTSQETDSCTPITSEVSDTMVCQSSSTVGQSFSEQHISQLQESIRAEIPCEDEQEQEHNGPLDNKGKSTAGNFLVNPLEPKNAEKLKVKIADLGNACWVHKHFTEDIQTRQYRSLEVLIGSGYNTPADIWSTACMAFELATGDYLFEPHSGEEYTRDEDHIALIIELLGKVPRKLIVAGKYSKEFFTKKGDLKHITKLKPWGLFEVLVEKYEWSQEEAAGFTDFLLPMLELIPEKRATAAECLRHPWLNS
Mast/stem cell growth factor receptor Kit (Homo sapiens), P10721 [D816H], sequence (P10721 whole entry D816H): as the sequence (P10721 whole entry) above, with D816H counted along it
Mast/stem cell growth factor receptor Kit (Homo sapiens), P10721 [L576P], sequence (P10721 whole entry L576P): as the sequence (P10721 whole entry) above, with L576P counted along it

Compound `COc1cc(N(C)c2ccnc3ccc(C(F)(F)F)cc23)cc(OC)c1OC` has a % binding [1] of 78%.
`CCC(=O)N1CC[C@H](Nc2ncnc3c2CN(c2cnc(OC)c(C(F)(F)F)c2)CC3)C1` [LENIOLISIB] was tested, and the pIC50 [2] was < 4.52.
With `C=CC(=O)Nc1cc(-n2c(=O)ccc3cnc4ccc(-c5ccc(NS(C)(=O)=O)cc5)cc4c32)ccc1C` the % of control [3] was 5.6%.
With `Cc1cc([C@@H](C)Nc2ccccc2C(=O)O)c2nc(N3CCOCC3)cc(=O)n2c1` [AZD-6482] the % of control [4] was 100%.
Compound `CN(C)CCOc1ccc(-c2nc(-c3ccncc3)c(-c3ccc4c(c3)CC/C4=N\O)[nH]2)cc1` has a % of control (SRSF protein kinase 1) of 86%.
`Cc1cc(F)c(C(=O)Nc2cccc(-c3nncn3C(C)C)n2)cc1-n1cnc(C2CC2)c1` showed a % of control [5] of 79%, a % of control [6] of 94% and a % of control [7] of 92%. The % of control [8] was 84%, the % of control [9] was 100% and the % of control [10] was 82%. It also gave a % of control [11] of 89% and a % of control [12] of 100%.
`Cn1cc(-n2cnc3c(NCc4nc5cc(Cl)c(Cl)cc5[nH]4)nc(N4CCOCC4)nc32)cn1` gave a % of inhibition [13] of -117%.
